# Earlier results, collected in patent US20250064971A1, “SUSTAINED RELEASE FORMULATIONS AND METHODS OF USE THEREOF” (VIRGINIA COMMONWEALTH UNIVERSITY, priority 2022, published 2025).
# Target: hERG (Homo sapiens, UniProt Q12809)
# Settings: compared to LAAM
# hERG, sequence (Q12809 whole entry): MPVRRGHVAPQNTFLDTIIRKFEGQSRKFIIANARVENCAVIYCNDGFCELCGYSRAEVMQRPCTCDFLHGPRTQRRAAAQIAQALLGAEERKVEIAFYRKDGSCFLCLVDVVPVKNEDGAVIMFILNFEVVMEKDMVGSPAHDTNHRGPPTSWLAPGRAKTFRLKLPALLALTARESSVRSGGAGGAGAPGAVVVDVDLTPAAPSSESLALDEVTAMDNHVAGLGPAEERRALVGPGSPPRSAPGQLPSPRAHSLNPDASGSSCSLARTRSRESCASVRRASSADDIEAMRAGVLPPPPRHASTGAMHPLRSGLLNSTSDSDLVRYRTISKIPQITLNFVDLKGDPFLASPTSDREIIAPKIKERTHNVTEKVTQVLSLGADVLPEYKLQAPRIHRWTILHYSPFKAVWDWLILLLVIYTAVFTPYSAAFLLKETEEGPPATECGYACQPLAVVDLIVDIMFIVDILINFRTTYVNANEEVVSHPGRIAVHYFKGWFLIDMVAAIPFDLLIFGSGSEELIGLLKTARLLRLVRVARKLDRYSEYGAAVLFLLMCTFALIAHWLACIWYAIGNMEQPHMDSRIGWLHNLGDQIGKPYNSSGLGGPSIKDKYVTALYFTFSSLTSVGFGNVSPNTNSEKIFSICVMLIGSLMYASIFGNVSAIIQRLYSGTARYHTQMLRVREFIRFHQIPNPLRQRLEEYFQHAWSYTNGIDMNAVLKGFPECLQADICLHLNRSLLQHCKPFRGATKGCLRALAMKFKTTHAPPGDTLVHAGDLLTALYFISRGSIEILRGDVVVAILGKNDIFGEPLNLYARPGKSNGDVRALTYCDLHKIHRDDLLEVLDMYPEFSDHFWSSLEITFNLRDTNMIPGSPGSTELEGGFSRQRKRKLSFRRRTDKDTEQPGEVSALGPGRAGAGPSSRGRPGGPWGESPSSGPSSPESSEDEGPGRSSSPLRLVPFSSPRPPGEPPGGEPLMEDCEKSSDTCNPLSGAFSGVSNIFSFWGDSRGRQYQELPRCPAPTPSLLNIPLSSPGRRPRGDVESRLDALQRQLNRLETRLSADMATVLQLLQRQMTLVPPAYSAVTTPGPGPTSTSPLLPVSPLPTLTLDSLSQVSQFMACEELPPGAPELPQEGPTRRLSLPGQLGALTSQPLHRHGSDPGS
structure (smiles),measurement,value
CCC(OC(C)=O)C(CC(C)NC)(c1ccccc1)c1ccccc1 (stereo not shown) [nor-LAAM],hERG inhibition IC50 (comparison in words),higher hERG inhibition IC50 than LAAM
